Read-outs that look alike come from different tables or passages of the source.
Key:
serotonin transporter = biological target: T1, serotonin transporter (Rattus norvegicus, UniProt P31652); test: Displacement of 3H-paroxetine from male rat frontal cortical membranes (serotonin transporter affinity); assay type: binding; conditions: read-out: 5-HT Transporter Affinity KI
T1 construct: displace ^3H-paroxetine from male rat frontal cortical membranes; from tissue; host or cells: male rat frontal cortex membranes
T1 sequence (P31652 whole entry): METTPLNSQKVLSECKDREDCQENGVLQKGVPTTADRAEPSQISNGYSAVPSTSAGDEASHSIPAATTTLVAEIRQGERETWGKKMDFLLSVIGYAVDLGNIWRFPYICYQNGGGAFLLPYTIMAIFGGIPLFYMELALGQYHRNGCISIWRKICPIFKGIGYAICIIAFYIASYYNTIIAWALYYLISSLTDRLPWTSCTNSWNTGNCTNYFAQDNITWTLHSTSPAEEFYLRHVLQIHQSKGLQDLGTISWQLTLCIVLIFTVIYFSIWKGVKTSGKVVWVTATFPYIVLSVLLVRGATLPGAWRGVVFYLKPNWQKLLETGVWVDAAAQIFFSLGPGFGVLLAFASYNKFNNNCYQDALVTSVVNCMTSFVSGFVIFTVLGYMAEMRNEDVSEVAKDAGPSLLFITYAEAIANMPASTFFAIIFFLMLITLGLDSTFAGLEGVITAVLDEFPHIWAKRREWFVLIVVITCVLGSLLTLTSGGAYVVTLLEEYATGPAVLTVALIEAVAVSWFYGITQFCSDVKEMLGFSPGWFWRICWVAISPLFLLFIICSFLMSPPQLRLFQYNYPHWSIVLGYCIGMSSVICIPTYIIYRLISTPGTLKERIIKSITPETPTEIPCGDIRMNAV

[1] = biological target: T2, cloned human 5HT1A receptors (Homo sapiens, UniProt P08908); test: 35S-GTPγS binding assay, membranes containing cloned human 5HT1A receptors; assay type: biochemical; conditions: for IC50: antagonist potency, reversal of the effects of the standard agonist 8-OHDPAT, read-out: 5-HT1A Function IC50
T2 construct: expressed in transfected cells
T2 sequence (P08908 1-422): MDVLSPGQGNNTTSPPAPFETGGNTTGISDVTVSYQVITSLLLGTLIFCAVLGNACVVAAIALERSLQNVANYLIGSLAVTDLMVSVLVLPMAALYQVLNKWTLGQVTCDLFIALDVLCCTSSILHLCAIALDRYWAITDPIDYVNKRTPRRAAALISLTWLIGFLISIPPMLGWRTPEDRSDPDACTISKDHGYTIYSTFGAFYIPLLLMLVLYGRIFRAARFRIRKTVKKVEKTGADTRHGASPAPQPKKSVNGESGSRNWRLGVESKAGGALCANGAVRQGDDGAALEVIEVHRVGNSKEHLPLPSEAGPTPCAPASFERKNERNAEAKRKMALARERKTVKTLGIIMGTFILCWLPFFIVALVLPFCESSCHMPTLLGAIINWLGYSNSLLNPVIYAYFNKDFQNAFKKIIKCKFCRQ
Method: Antagonist activity at 5-HT1A receptors was established by using a ^35S-GTPγS binding assay similar to that used by Lazareno and Birdsall (Br. J. Pharmacol. 109: 1120, 1993), in which the test compound's ability to affect the binding of ^35S-GTPγS to membranes containing cloned human 5HT1A receptors was determined. Agonists produce an increase in binding whereas antagonists produce no increase but rather reverse the effects of the standard agonist 8-OHDPAT. The test compound's maximum inhibitory effect is represented as the Imax, while its potency is defined by the IC50.

human 5-HT1A receptors = biological target: T3, human 5-HT1A receptors (Homo sapiens, UniProt P08908); test: Displacement of [3H] 8-OHDPAT from 5-HT1A receptor, CHO cells stably transfected with human 5-HT1A receptors; assay type: binding; conditions: CHO cells with human 5-HT1A receptors, read-out: 5-HT1A Receptor Affinity KI
T3 construct: expressed in transfected cells; host or cells: CHO cells
T3 sequence (P08908 1-422): T2 sequence (P08908 1-422)
Excerpt: High affinity for the serotonin 5-HT1A receptor was established by testing the claimed compound's ability to displace [^3H] 8-OHDPAT (dipropylaminotetralin) from the 5-HT1A serotonin receptor following a modification of the procedure of Hall et al., J. Neurochem. 44, 1685 (1985) which utilizes CHO cells stably transfected with human 5-HT1A receptors.

[2] = maximum inhibitory effect, read-out: 5-HT1A Function (Imax)

Structure (SMILES) | Ki (serotonin transporter) | IC50 [1] | 5-HT1A Function (Imax) ([1]; maximum inhibitory effect) | Ki (human 5-HT1A receptors) | Emax [1, 2] | EC50 ([1]; given as EC50, read-out: 5-HT1A Function EC50) | Emax ([1]; given as Emax, read-out: 5-HT1A Function Emax)
Cc1ccc2c3c(ccc2n1)OCC(CNC(C)CCc1c[nH]c2ccc(F)cc12)O3 (single isomer, unassigned; isomer a) [Example 11 Isomer A] | 1.62 nM | 27.8 nM | 78.3% | 1.68 nM | – | – | –
Cc1ccc2c3c(ccc2n1)OCC(CNC(C)CCc1c[nH]c2ccc(F)cc12)O3 (single isomer, unassigned; isomer b) [Example 11 Isomer B] | 0.43 nM | – | – | 4.65 nM | – | – | –
COc1ccc2[nH]cc(CCNCC3COc4ccc5nc(C)ccc5c4O3)c2c1 (stereo not drawn) [Example 1] | 31 nM | 88.6 nM | – | 2.03 nM | 80.3% | – | –
Cc1ccc2c3c(ccc2n1)OC[C@H](CNCCc1c[nH]c2ccc(Cl)cc12)O3 [Example 2] | 34 nM | 49.4 nM | – | 19.9 nM | 37% | – | –
Cc1ccc2c3c(ccc2n1)OC[C@H](CNCCCc1c[nH]c2ccc(F)cc12)O3 [Example 3, N-[3-(5-Fluoro-1H-Indolyl-3-yl)propyl]-N-(8-methyl-2,3-dihydro-[1,4]dioxino[2,3-f]quinolin-2-ylmethyl)amine] | 0.41 nM | 10.6 nM | – | 0.27 nM | 98.7% | – | –
Cc1ccc2c3c(ccc2n1)OCC(CNCCc1c[nH]c2ccc(F)cc12)O3 (stereo not drawn) [Example 4, N-[2-(5-Fluoro-1H-indol-3-yl)ethyl]-N-(8-methyl-2,3-dihydro-[1,4]dioxino[2,3-f]quinolin-2-ylmethyl)amine] | 47 nM | 909 nM | – | 4.19 nM | 58% | – | –
CCc1ccc2c3c(ccc2n1)OCC(CNCCCc1c[nH]c2ccc(F)cc12)O3 (stereo not drawn) [Example 5, N-[3-(5-Fluoro-1H-Indol-3-yl)propyl]-N-(8-ethyl-2,3-dihydro-[1,4]dioxino[2,3-f]quinolin-2-ylmethyl)amine] | 0.96 nM | 92.5 nM | – | 0.64 nM | 76.8% | – | –
Cc1ccc2c3c(ccc2n1)OCC(CNCCCc1c[nH]c2c(F)cccc12)O3 (stereo not drawn) [Example 8, N-[3-(7-Fluoro-1H-indol-3-yl)propyl]-N-(8-methyl-2,3-dihydro-[1,4]dioxino[2,3-f]quinolin-2-ylmethyl)amine] | 2.07 nM | 25.8 nM | – | 0.22 nM | 94.1% | – | –
Cc1ccc2c3c(ccc2n1)OCC(CNCCCCc1c[nH]c2ccc(F)cc12)O3 (stereo not drawn) [Example 10, N-[4-(5-Fluoro-1H-indol-3-yl)butyl]-N-(8-methyl-2,3-dihydro-[1,4]dioxino[2,3-f]quinolin-2-ylmethyl)amine] | 1.29 nM | 71.1 nM | – | 1.78 nM | 61.5% | – | –
Cc1ccc2c3c(ccc2n1)OCC(CNCCCc1cn(C)c2ccc(F)cc12)O3 (stereo not drawn) [Example 12, N-[3-(5-Fluoro-1-methyl-1H-indol-3-yl)propyl]-N-(8-methyl-2,3-dihydro-[1,4]dioxino[2,3-f]quinolin-2-ylmethyl)amine] | 13 nM | 138 nM | – | 1.55 nM | 81.6% | – | –
Cc1ccc2c3c(ccc2n1)OCC(CNCCCc1c[nH]c2c(F)cc(F)cc12)O3 (stereo not drawn) [Example 13, N-[3-(5,7-Difluoro-1H-indol-3-yl)propyl]-N-(8-methyl-2,3-dihydro-[1,4]dioxino[2,3-f]quinolin-2-ylmethyl)amine] | 1.05 nM | 64.6 nM | – | 0.32 nM | 95% | – | –
Fc1ccc2[nH]cc(CCCNC[C@H]3COc4ccc5ncccc5c4O3)c2c1 [Example 14, N-(2,3-Dihydro-[1,4]dioxino[2,3-f]quinolin-2-ylmthyl)-N-[3-(5-fluoro-1H-indol-3-yl)propyl]amine] | 1 nM | 507 nM | – | 1.03 nM | 100% | – | –
CN(CCCc1c[nH]c2ccc(F)cc12)CC1COc2ccc3ncccc3c2O1 (stereo not drawn) [Example 15, N-(2,3-Dihydro-[1,4]dioxino[2,3-f]quinolin-2-ylmethyl)-N-[3-(5-fluoro-1H-indol-3-yl)propyl]-N-methylamine] | 1.6 nM | 412 nM | – | 5.16 nM | 100% | – | –
Cc1ccc2c3c(ccc2n1)OCC(CN(C)CCCc1c[nH]c2c(F)cc(F)cc12)O3 (stereo not drawn) [Example 16, N-[3-(5,7-Difluoro-1H-indol-3-yl)propyl]-N-methyl-N-(8-methyl-2,3-dihydro-[1,4]dioxino[2,3-f]quinolin-2-ylmethyl)amine] | 1.8 nM | 125 nM | – | 2.51 nM | 100% | – | –
Cc1ccc2c3c(ccc2n1)OCC(CN(C)CCCc1cn(C)c2ccc(F)cc12)O3 (stereo not drawn) [Example 42, [3-(5-Fluoro-1-methyl-1H-indol-3-yl)-propyl]-methyl-(8-methyl-2,3-dihydro-[1,4]dioxino[2,3-f]quinolin-2-ylmethyl)-amine] | 2.75 nM | – | – | 36 nM | – | – | –

The next lines start with the values.

Ki (serotonin transporter) | IC50 [1] | 5-HT1A Function (Imax) ([1]; maximum inhibitory effect) | Ki (human 5-HT1A receptors) | Emax [1, 2] | EC50 ([1]; given as EC50, read-out: 5-HT1A Function EC50) | Emax ([1]; given as Emax, read-out: 5-HT1A Function Emax) | Structure (SMILES)
3.57 nM | 31.3 nM | – | 0.39 nM | 86.6% | – | – | Cc1ccc2c3c(ccc2n1)OCC(CNCCCc1c[nH]c2ccccc12)O3 (stereo not drawn) [Example 6, N-[3-(1H-Indol-3-yl)propyl]-N-(8-methyl-2,3-dihydro-[1,4]dioxino[2,3-f]quinolin-2-ylmethyl)amine]
0.38 nM | 73.9 nM | – | 3.43 nM | 100% | – | – | Cc1ccc2c3c(ccc2n1)OCC(CN(C)CCCc1c[nH]c2ccc(F)cc12)O3 (stereo not drawn) [Example 7, N-[3-(5-Fluoro-1H-indol-3-yl)propyl]-N-methyl-N-(8-methyl-2,3-dihydro-[1,4]dioxino[2,3-f]quinolin-2-ylmethyl)amine]
4.7 nM | 23.7 nM | – | 0.46 nM | 95.2% | – | – | Cc1ccc2c3c(ccc2n1)OCC(CNCCCCc1c[nH]c2ccccc12)O3 (stereo not drawn) [Example 9, N-[4-(1H-indol-3-yl)butyl]-N-(8-methyl-2,3-dihydro-[1,4]dioxino[2,3-f]quinolin-2-ylmethyl)amine]
46 nM | 52 nM | – | 0.63 nM | 78% | – | – | Cc1ccc2c3c(ccc2n1)OC[C@H](CNCCc1coc2ccccc12)O3 [Example 17]
6.6 nM | 10.4 nM | – | 0.35 nM | 59.3% | – | – | Cc1ccc2c3c(ccc2n1)OC[C@H](CNCCCc1coc2ccccc12)O3 [Example 18]
14.6 nM | 50.1 nM | – | 0.2 nM | 95.4% | – | – | COc1cccc2c(CCCNCC3COc4ccc5nc(C)ccc5c4O3)coc12 (stereo not drawn) [Example 19, N-[3-(7-Methoxy-1-benzofuran-3-yl)propyl]-N-(8-methyl-2,3-dihydro-[1,4]dioxino[2,3-f]quinolin-2-ylmethyl)amine]
2.82 nM | 188 nM | – | 0.38 nM | 100% | – | – | Cc1ccc2c3c(ccc2n1)OC[C@H](CNCCCc1csc2ccccc12)O3 [Example 20]
62 nM | 25.9 nM | – | 0.6 nM | 37.5% | – | – | Cc1ccc2c3c(ccc2n1)OCC(CNCCc1csc2ccccc12)O3 (stereo not drawn) [Example 21, N-[2-(1-Benzothien-3-yl)ethyl]-N-(8-methyl-2,3-dihydro-[1,4]dioxino[2,3-f]quinolin-2-ylmethyl)amine]
4.3 nM | 878 nM | – | 7.12 nM | 85.5% | – | – | Cc1ccc2c3c(ccc2n1)OC[C@H](CN(C)CCCc1csc2ccccc12)O3 [Example 22, N-[3-(1-Benzothien-3-yl)propyl]-N-methyl-N-(8-mthyl-2,3-dihydro-[1,4]dioxino[2,3-f]quinolin-2-ylmthyl)amin]
5.5 nM | – | – | 0.28 nM | – | – | – | Cc1ccc2c3c(ccc2n1)OCC(CNCCCCc1coc2ccccc12)O3 (stereo not drawn) [Example 28, N-[4-(1-Benzofuran-3-yl)butyl]-N-(8-methyl-2,3-dihydro-[1,4]dioxino[2,3-f]quinolin-2-ylmethyl)amine]
0.24 nM | – | – | 21 nM | – | – | – | Cc1ccc2c3c(ccc2n1)OCC(CN(C)CCCCc1c[nH]c2ccc(C#N)cc12)O3 (stereo not drawn) [Example 41, 3-{4-[Methyl-(8-methyl-2,3-dihydro-[1,4]dioxino[2,3-f]quinolin-2-ylmethyl)-amino]-butyl}-1H-indole-5-carbonitrile]
– | – | – | 2.08 nM | – | 526 nM | 97% | CCN(CCCCc1coc2ccccc12)C[C@H]1COc2ccc3nc(C)ccc3c2O1 [Example 52, N-[4-(1-Benzofuran-3-yl)butyl]-N-ethyl-N-{[(2S)-8-methyl-2,3-dihydro[1,4]dioxino[2,3-f]quinolin-2-yl]methyl}amine]

— patent publication US6800637B2, “Antidepressant indolealkyl derivatives of heterocycle-fused benzodioxan methylamines” (Wyeth, priority 2002, dated 2004)
